Test results as given in patent US9717243B2, “Piperidinecarboxylic acid derivatives as fungicides” (priority 2013, dated 2017).
Like-named read-outs stand apart in the source and are kept apart here.

Experiments:
[1] = LogP by HPLC on reversed phase columns (EEC directive 79/831 Annex V.A8); format: physicochemical
Protocol: Calibration was done with straight-chain alkan2-ones (with 3 to 16 carbon atoms) with known LogP values (measurement of LogP values using retention times with linear interpolation between successive alkanones). Lambda-max-values were determined using UV-spectra from 200 nm to 400 nm and the peak values of the chromatographic signals.

Phytophthora infestans = format: in vivo; conditions: 100 ppm of active ingredient; preventive, tomatoes; evaluated 3 days after inoculation; 0% = untreated control, 100% = no disease
Plasmopara viticola = assay: Plasmopara test (grapevines)/preventive; conditions: preventive, evaluated 6 days after inoculation, 0% = untreated control, 100% = no disease
Protocol: Plasmopara Test (Grapevines)/Preventive • Solvent: 24.5 parts by weight of acetone • 24.5 parts by weight of dimethylacetamide • Emulsifier: 1 part by weight of alkylaryl polyglycol ether
After the spray coating has dried on, the plants are inoculated with an aqueous spore suspension of Plasmopara viticola and then remain for 1 day in an incubation cabinet at approximately 20° C. and a relative atmospheric humidity of 100%. The plant is subsequently placed for 4 days in a greenhouse at approximately 21° C. and a relative atmospheric humidity of approximately 90%. The plants are then misted and placed for 1 day in an incubation cabinet.
The test is evaluated 6 days after the inoculation.

[2] = Table 1, compounds of formula (I), LC-UV, acidic range, 0.1% formic acid in water and acetonitrile as eluent

SMILES | Log P[a] [1] | further results
COC(=O)C1(c2nc(C3=NOC(c4ccccc4OS(C)(=O)=O)C3)cs2)CCN(C(=O)Cn2nc(C(F)F)cc2C(F)F)CC1 (centres unmarked) [Example I-7, methyl 1-{[3,5-bis(difluoromethyl)-1H-pyrazol-1-yl]acetyl}-4-[4-(5-{2-[(methylsulfonyl)oxy]phenyl}-4,5-dihydro-1,2-oxazol-3-yl)-1,3-thiazol-2-yl]piperidine-4-carboxylate] |  | chromatographic logP ([1]; Table 1, compounds of formula (I), LC-UV, acidic range, 0.1% formic acid in water and acetonitrile as eluent, read-out: Log P[a]): 3.27; Efficacy % (Phytophthora infestans): 95%; Efficacy % (Plasmopara viticola; 100 ppm of active ingredient): 100%
COC(=O)C1(c2nc(C3=NOC(c4ccccc4OS(C)(=O)=O)C3)cs2)CCN(C(=O)Nc2cc(C)ccc2C)CC1 (centres unmarked) [Example I-11] | 3.29 | Efficacy % (Phytophthora infestans): 100%; Efficacy % (Plasmopara viticola; 100 ppm of active ingredient): 100%
COC(=O)C1(c2nc(C3=NOC(c4ccccc4OS(C)(=O)=O)C3)cs2)CCN(C(=O)Nc2cc(C(F)F)ccc2C(F)F)CC1 (centres unmarked) [Example I-9] | 3.42 | Efficacy % (Phytophthora infestans): 91%; Efficacy % (Plasmopara viticola; 100 ppm of active ingredient): 100%
C#CCOc1ccc(F)c(F)c1C1CC(c2csc(C3(C(=O)OC)CCN(C(=O)Cn4nc(C(F)F)cc4C)CC3)n2)=NO1 (centres unmarked) [Example I-66] | 3.33 | Efficacy % (Plasmopara viticola; 1 ppm of active ingredient): 76%
COC(=O)C1(c2nc(C3=NOC(c4ccccc4OS(C)(=O)=O)C3)cs2)CCN(C(=O)Nc2cn(C(F)F)nc2C)CC1 (centres unmarked) [Example I-10] | 2.64 | Efficacy % (Phytophthora infestans): 94%; Efficacy % (Plasmopara viticola; 100 ppm of active ingredient): 96%
C#CCOc1ccc(F)c(F)c1C1CC(c2csc(C3(C(=O)OC)CCN(C(=O)Cn4nc(C(F)F)cc4C(F)F)CC3)n2)=NO1 (centres unmarked) [Example I-3] | 3.61 | Efficacy % (Plasmopara viticola; 1 ppm of active ingredient): 93%
CCC(C)NC(=O)C1(C#N)CCN(C(=O)Cc2ccc(Cl)cc2)CC1 (centres unmarked) [IV-37] | 2.46 | 
COC(=O)C1(C(N)=S)CCN(C(=O)Nc2cn(C(F)F)nc2C)CC1 [II-14] | 1.30 | 
CS(=O)(=O)Oc1cccc(Cl)c1C1CC(C(=O)CBr)=NO1 (centres unmarked) [2-[3-(bromoacetyl)-4,5-dihydro-1,2-oxazol-5-yl]-3-chlorophenyl methanesulfonate] |  | chromatographic logP ([1]; pH 2.7, synthesis intermediates in preparation examples, read-out: LogP (pH 2.7)): 2.93
O=C(Cn1nc(C(F)F)cc1C(F)F)N1CCC(C(=O)OC2CCOC2)(c2nc(C3=NOC(c4c(F)cccc4F)C3)cs2)CC1 (centres unmarked) [Example I-55] | 3.39 | 
CCCCNC(=O)C1(C#N)CCN(C(=O)Nc2ccccc2)CC1 [IV-48] | 2.20 | 
CSCCOC(=O)C1(c2nc(C3=NOC(c4ccccc4-c4ccccc4)C3)cs2)CCN(C(=O)Cn2nc(C(F)F)cc2C(F)F)CC1 (centres unmarked) [Example I-48] |  | Log P[a] [1, 2]: 4.77
C#CCOc1ccccc1C1CC(c2csc(C3(C(=O)OCC)CCN(C(=O)Cn4nc(C(F)F)cc4C(F)F)CC3)n2)=NO1 (centres unmarked) [Example I-27] | 3.87 | 
C#CCOC(=O)C1(C(N)=S)CCN(C(=O)Cn2nc(C(F)F)cc2C(F)F)CC1 [II-17] | 2.27 | 
COC(=O)C1(c2nc(C3=NOC(c4ccccc4)C3)cs2)CCN(C(=O)Cn2nc(C(F)F)cc2C(F)F)CC1 (centres unmarked) [Example I-5] | 3.48 | 
O=C(Cn1nc(C(F)F)cc1C(F)F)N1CCC(C(=O)OC2CCOC2)(c2nc(C3=NOC(c4ccccc4-c4ccccc4)C3)cs2)CC1 (centres unmarked) [Example I-54] |  | Log P[a] [1, 2]: 4.31
C#CCOc1ccccc1C1CC(c2csc(C3(C(=O)OC)CCN(C(=O)Cn4nc(C(F)(F)F)cc4C)CC3)n2)=NO1 (centres unmarked) [Example I-72] | 3.71 | 
CC(C)=CCN(C)C(=O)C1(C#N)CCN(C(=O)Nc2ccc(Cl)cc2)CC1 [IV-46] | 3.03 | 
COC(=O)C1(C(N)=S)CCN(C(=O)Nc2cc(C(F)(F)F)nn2C)CC1 [II-19] | 1.74 | 
CSCCOC(=O)C1(C(N)=S)CCN(C(=O)Cn2nc(C(F)F)cc2C(F)F)CC1 [II-2] | 2.49 | 
C#CCOc1ccc(F)c(F)c1C1CC(c2csc(C3(C(=O)OC)CCN(C(=O)Cn4nc(C)cc4C(F)F)CC3)n2)=NO1 (centres unmarked) [Example I-76] | 3.09 | 
COC(=O)C1(c2nc(C3=NOC(c4ccccc4OS(C)(=O)=O)C3)cs2)CCN(C(=O)Nc2cc(C(F)(F)F)nn2C)CC1 (centres unmarked) [Example I-79] | 3.00 | 
